Test results published in doi:10.1101/2021.09.30.462449v1 (biorxiv, 2021).

Legend:
Assay in all cases: biochemical
Details in all cases: read-out: % inhibition mean (Z'Lyte)
ABL1 E255K = ABL1 E255K (Homo sapiens, UniProt P00519, E255K)
ABL1 Y253F = ABL1 Y253F (Homo sapiens, UniProt P00519, Y253F)
CAMK1G (CAMKI gamma) = CAMK1G (CAMKI gamma) (Homo sapiens, UniProt Q96NX5)
CDC42 BPG (MRCKG) = CDC42 BPG (MRCKG) (Homo sapiens, UniProt Q6DT37)
CSNK1G1 (CK1 gamma 1) = CSNK1G1 (CK1 gamma 1) (Homo sapiens, UniProt Q9HCP0)
DYRK3 = DYRK3 (Homo sapiens, UniProt O43781)
DYRK4 = DYRK4 (Homo sapiens, UniProt Q9NR20)
[1] = biological target: EGFR (ErbB1) T790M C797S L858R (Homo sapiens, UniProt P00533, C797S/L858R/T790M)
FGFR2 = FGFR2 (Homo sapiens, UniProt P21802)
FGFR2 N549H = FGFR2 N549H (Homo sapiens, UniProt P21802, N549H)
FGR = FGR (Homo sapiens, UniProt P09769)
GRK6 = GRK6 (Homo sapiens, UniProt P43250)
IKBKE (IKK epsilon) = IKBKE (IKK epsilon) (Homo sapiens, UniProt Q14164)
JAK1 = JAK1 (Homo sapiens, UniProt P23458)
Sequence of JAK1 (P23458 whole entry): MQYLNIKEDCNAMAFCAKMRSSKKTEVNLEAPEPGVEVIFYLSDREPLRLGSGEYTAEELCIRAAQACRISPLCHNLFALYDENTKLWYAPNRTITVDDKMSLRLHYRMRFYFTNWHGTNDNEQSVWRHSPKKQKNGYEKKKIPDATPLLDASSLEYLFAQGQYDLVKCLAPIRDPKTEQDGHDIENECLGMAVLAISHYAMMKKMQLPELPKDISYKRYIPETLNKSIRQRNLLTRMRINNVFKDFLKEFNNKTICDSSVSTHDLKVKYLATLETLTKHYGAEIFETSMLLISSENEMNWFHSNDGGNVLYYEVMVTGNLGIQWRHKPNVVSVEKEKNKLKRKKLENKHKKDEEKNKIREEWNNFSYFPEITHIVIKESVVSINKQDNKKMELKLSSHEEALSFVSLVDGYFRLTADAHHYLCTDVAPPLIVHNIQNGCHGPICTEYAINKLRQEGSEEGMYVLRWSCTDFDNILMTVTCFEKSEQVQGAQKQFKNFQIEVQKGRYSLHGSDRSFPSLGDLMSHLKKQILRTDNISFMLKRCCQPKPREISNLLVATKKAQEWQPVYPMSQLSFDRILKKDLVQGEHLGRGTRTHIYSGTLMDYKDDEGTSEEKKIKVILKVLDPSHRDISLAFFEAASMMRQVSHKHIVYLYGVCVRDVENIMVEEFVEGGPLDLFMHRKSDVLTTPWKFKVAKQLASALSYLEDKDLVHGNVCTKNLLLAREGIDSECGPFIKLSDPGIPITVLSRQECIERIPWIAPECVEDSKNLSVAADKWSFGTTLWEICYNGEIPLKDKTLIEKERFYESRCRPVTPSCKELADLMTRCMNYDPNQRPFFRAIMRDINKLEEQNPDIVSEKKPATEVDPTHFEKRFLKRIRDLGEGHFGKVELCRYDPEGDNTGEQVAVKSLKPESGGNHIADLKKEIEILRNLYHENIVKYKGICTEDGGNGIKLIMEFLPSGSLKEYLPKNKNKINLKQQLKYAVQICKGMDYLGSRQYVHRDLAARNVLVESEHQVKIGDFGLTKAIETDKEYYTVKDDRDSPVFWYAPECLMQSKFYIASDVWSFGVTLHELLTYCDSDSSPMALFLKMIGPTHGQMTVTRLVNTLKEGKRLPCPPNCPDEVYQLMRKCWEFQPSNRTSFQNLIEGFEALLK

KIT V559D = KIT V559D (Homo sapiens, UniProt P10721, V559D)
KSR2 = KSR2 (Homo sapiens, UniProt Q6VAB6)
Sequence of KSR2 (Q6VAB6 whole entry): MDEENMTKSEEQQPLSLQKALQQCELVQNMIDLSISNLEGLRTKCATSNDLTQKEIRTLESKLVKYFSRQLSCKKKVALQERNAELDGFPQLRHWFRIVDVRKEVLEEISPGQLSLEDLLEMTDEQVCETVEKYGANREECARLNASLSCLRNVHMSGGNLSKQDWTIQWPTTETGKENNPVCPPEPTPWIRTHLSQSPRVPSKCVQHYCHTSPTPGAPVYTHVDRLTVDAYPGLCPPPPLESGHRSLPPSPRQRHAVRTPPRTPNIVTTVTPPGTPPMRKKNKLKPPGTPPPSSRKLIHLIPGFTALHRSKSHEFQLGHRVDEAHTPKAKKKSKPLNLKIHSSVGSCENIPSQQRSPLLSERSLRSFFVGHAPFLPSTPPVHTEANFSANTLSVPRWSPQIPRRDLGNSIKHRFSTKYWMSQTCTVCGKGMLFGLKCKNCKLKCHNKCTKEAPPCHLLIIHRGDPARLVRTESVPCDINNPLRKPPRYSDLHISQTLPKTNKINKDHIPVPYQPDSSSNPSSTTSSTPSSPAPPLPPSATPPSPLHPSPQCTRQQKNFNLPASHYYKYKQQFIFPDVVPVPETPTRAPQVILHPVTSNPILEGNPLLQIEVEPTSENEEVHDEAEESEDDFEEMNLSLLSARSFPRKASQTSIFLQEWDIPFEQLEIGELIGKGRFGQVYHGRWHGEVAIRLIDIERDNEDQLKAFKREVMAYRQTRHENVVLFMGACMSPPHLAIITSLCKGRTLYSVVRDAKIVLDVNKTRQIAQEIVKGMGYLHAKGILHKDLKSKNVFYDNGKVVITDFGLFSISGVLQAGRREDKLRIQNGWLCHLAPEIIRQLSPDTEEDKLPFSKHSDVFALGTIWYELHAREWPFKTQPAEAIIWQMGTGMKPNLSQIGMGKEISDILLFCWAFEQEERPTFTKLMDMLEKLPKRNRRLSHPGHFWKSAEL

MAPK7 (ERK5) = MAPK7 (ERK5) (Homo sapiens, UniProt Q13164)
Sequence of MAPK7 (ERK5) (Q13164 whole entry): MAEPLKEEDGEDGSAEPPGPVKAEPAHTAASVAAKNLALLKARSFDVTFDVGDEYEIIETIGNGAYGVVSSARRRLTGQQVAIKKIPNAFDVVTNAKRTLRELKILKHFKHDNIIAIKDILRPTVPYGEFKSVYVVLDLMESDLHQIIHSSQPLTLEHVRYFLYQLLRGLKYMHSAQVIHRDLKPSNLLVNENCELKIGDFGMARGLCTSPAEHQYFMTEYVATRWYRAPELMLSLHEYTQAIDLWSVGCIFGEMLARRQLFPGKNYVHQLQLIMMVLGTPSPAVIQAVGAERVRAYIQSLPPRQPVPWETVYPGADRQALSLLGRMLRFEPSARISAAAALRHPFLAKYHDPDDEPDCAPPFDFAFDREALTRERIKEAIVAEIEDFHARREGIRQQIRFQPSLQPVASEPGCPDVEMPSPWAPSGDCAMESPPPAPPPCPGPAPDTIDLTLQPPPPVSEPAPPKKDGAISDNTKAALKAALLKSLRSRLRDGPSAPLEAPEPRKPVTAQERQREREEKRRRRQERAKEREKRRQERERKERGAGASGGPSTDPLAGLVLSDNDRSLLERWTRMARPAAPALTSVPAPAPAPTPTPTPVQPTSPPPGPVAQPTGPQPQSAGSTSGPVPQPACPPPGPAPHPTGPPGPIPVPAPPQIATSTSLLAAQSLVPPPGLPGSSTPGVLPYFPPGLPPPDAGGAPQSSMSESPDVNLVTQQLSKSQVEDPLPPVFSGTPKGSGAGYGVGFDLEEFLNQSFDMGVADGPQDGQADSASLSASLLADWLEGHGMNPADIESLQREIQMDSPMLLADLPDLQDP

MAPK9 (JNK2) = MAPK9 (JNK2) (Homo sapiens, UniProt P45984)
MAPKAPK5 (PRAK) = MAPKAPK5 (PRAK) (Homo sapiens, UniProt Q8IW41)
MARK1 (MARK) = MARK1 (MARK) (Homo sapiens, UniProt Q9P0L2)
MARK2 = MARK2 (Homo sapiens, UniProt Q7KZI7)
Sequence of MARK2 (Q7KZI7 whole entry): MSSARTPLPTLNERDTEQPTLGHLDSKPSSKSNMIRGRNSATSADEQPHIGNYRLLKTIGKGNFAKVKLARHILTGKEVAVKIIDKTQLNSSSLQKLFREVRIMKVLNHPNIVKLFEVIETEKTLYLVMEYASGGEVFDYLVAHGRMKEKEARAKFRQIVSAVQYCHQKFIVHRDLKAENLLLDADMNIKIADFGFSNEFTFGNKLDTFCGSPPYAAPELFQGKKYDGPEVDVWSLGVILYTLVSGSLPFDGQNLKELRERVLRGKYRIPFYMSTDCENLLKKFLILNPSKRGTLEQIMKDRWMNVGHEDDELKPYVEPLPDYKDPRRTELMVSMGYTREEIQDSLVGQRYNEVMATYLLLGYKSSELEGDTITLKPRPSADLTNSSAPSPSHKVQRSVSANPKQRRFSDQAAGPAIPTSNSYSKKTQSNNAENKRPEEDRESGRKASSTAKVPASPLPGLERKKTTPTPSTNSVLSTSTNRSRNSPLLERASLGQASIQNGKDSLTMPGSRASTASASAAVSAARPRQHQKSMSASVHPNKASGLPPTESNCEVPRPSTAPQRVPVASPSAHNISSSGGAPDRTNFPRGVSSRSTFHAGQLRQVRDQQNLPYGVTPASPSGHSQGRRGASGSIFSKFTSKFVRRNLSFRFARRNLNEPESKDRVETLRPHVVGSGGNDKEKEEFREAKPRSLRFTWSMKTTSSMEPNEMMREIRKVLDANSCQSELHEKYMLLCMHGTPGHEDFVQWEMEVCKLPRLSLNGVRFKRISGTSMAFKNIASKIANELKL

PRKCG (PKC gamma) = PRKCG (PKC gamma) (Homo sapiens, UniProt P05129)
PRKD2 (PKD2) = PRKD2 (PKD2) (Homo sapiens, UniProt Q9BZL6)
RPS6KA3 (RSK2) = RPS6KA3 (RSK2) (Homo sapiens, UniProt P51812)
Sequence of RPS6KA3 (RSK2) (P51812 whole entry): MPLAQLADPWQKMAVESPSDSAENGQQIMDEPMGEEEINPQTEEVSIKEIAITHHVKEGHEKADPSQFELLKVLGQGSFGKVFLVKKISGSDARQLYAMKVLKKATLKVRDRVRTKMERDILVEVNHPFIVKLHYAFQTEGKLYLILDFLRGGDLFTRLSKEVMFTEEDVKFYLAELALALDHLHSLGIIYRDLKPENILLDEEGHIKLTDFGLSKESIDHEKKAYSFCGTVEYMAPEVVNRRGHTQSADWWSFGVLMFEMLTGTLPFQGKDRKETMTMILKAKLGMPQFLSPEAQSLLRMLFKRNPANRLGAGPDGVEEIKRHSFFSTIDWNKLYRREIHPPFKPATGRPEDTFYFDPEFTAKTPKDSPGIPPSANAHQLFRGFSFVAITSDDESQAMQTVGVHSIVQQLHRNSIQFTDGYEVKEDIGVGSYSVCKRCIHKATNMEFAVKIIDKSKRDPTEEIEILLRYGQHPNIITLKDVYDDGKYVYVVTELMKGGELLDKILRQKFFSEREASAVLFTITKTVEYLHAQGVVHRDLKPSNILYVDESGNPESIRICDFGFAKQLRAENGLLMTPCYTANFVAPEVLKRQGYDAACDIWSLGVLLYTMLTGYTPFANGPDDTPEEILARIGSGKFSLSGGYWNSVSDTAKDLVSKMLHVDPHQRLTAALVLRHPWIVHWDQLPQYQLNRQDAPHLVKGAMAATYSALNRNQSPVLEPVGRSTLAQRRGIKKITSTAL

SBK1 = SBK1 (Homo sapiens, UniProt Q52WX2)
STK22B (TSSK2) = STK22B (TSSK2) (Homo sapiens, UniProt Q96PF2)
Sequence of STK22B (TSSK2) (Q96PF2 whole entry): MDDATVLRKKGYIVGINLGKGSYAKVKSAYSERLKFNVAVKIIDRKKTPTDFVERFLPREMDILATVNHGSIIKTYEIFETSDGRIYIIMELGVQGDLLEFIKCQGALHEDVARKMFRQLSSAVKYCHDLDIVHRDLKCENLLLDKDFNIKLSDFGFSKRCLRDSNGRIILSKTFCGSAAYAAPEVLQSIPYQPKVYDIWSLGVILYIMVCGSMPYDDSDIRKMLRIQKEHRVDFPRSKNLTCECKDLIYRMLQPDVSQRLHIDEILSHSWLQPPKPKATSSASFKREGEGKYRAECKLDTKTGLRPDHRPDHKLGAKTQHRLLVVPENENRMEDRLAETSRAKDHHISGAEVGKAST

STK3 (MST2) = STK3 (MST2) (Homo sapiens, UniProt Q13188)
ZAP70 = ZAP70 (Homo sapiens, UniProt P43403)

For `COc1ccc2nc3cc(Cl)ccc3c(Nc3cc(CN4CCCC4)c(O)c(CN4CCCC4)c3)c2n1` [Pyronaridine, 4-[(7-Chloro-2-methoxybenzo[b][1,5]naphthyridin-10-yl)amino]-2,6-bis(1-pyrrolidinylmethyl)phenol phosphate (1:4)], the inhibition at 1 µM (ABL1 E255K) was 7%, the inhibition at 1 µM (ABL1 Y253F) was -1% and the inhibition at 1 µM (CAMK1G (CAMKI gamma)) was 0%. For the same molecule, the inhibition at 1 µM (CDC42 BPG (MRCKG)) was 1%, the inhibition at 1 µM (CSNK1G1 (CK1 gamma 1)) was 0% and the inhibition at 1 µM (DYRK3) was 1%. It also gave an inhibition at 1 µM (DYRK4) of 0%, an inhibition at 1 µM [1] of 2% and an inhibition at 1 µM (FGFR2) of -1%. The inhibition at 1 µM (FGFR2 N549H) was 2%, the inhibition at 1 µM (FGR) was 11% and the inhibition at 1 µM (GRK6) was -1%. The inhibition at 1 µM (IKBKE (IKK epsilon)) was 2%, the inhibition at 1 µM (JAK1) was 0% and the inhibition at 1 µM (KIT V559D) was -1%. The inhibition at 1 µM (KSR2) was 2%, the inhibition at 1 µM (MAPK7 (ERK5)) was 5% and the inhibition at 1 µM (MAPK9 (JNK2)) was -15%. For the same molecule, the inhibition at 1 µM (MAPKAPK5 (PRAK)) was 3%, the inhibition at 1 µM (MARK1 (MARK)) was -10% and the inhibition at 1 µM (MARK2) was 6%. It also gave an inhibition at 1 µM (PRKCG (PKC gamma)) of -4%, an inhibition at 1 µM (PRKD2 (PKD2)) of -4% and an inhibition at 1 µM (RPS6KA3 (RSK2)) of 10%. The inhibition at 1 µM (SBK1) was 6%, the inhibition at 1 µM (STK22B (TSSK2)) was -2% and the inhibition at 1 µM (STK3 (MST2)) was -2%. For the same molecule, the inhibition at 1 µM (ZAP70) was 4%.
